Source: paper PMC6260965 (Structure (London, England : 1993), 2018)
pKi: −log10 of the molar value. Like-named read-outs stand apart in the source and are kept apart here.

Assays:
[1] = test system: NS3/4A protease Y56H/D168A; experiment: Enzyme inhibition assay, Y56H/D168A protease; type: biochemical, HCV; details: for loss in potency in enzyme inhibition assays: Y56H/D168A relative to WT protease
NS3/4A protease D168A [2] = target: NS3/4A protease D168A (Hepatitis C virus genotype 1a, UniProt P27958, D1194A); experiment: biochemical; type: biochemical, HCV
[3] = test system: NS3/4A protease Y56H/D168A versus sum of Y56H and D168A; experiment: Double mutant cycle analysis from inhibition constants; details: calculated from measured Ki; negative coupling
[4] = target: NS3/4A protease Y56H/D168A (Hepatitis C virus genotype 1a, UniProt P27958, D1194A/Y1082H); experiment: Enzyme inhibition assay, Y56H/D168A protease; type: biochemical, HCV
NS3/4A protease Y56H = NS3/4A protease Y56H (Hepatitis C virus genotype 1a, UniProt P27958, Y1082H); experiment: Enzyme inhibition assay, Y56H protease; type: biochemical, HCV
NS3/4A protease D168A [5] = experiment: biochemical; type: biochemical, HCV; details: D168A relative to WT protease
[6] = test system: GT3 double substitution variant Y56H/Q168R; details: GT3 Y56H/Q168R selected in vitro; ref Ng et al., 2017; cited from earlier work
[7] = test system: HCV Con1 (genotype 1b) reporter replicon, H77 NS3 protease region with Y56H/D168A; experiment: Cell-based drug susceptibility; details: Y56H/D168A compared to WT
[8] = test system: HCV Con1 (genotype 1b) reporter replicon, H77 NS3 protease region with D168A; experiment: Cell-based drug susceptibility; details: D168A compared to WT

Compound | loss in potency in enzyme inhibition assays [1] | difference in ΔΔG for the double mutant compared to sum of the single mutants [3] | potency loss in enzyme inhibition assays (NS3/4A protease D168A [5]) | lower potency in replicon assays [7] | also measured
CCc1nc2ccc(OC)cc2nc1O[C@@H]1C[C@H]2C(=O)N[C@]3(C(=O)NS(=O)(=O)C4CC4)C[C@H]3/C=C\CCCCC[C@H](NC(=O)OC(C)(C)C)C(=O)N2C1 [5172-mcP1P3] | 200–400 fold |  |  |  | pKi (NS3/4A protease D168A [2]; read-out: inhibition constant (Ki), D168A variant): 7.08
CC(C)(C)OC(=O)N[C@H]1CCCCC/C=C\[C@@H]2C[C@@]2(C(=O)NS(=O)(=O)C2CC2)NC(=O)[C@@H]2C[C@@H](OC(=O)N3Cc4cccc(F)c4C3)CN2C1=O [danoprevir] | 500 fold | ~ 0.06 kcal/mol | 200 fold |  | additional reduction in potency with Y56H ([1]; Y56H/D168A relative to D168A, enzyme inhibition): 2.5 fold; pKi [4]: 6.28; pKi (NS3/4A protease Y56H): 8.52; pKi (NS3/4A protease D168A [2]): 6.70
CC(C)(C)[C@@H]1NC(=O)O[C@@H]2CCC[C@H]2OC/C=C/C(F)(F)c2nc3ccccc3nc2O[C@@H]2C[C@@H](C(=O)N[C@]3(C(=O)NS(=O)(=O)C4(C)CC4)C[C@H]3C(F)F)N(C2)C1=O [glecaprevir] |  |  |  |  | loss in potency [6]: ~1400 fold
C=C[C@@H]1C[C@]1(NC(=O)[C@@H]1C[C@@H]2CN1C(=O)[C@H](C(C)(C)C)NC(=O)O[C@@H]1C[C@H]1CCCCCc1nc3ccc(OC)cc3nc1O2)C(=O)NS(=O)(=O)C1CC1 [grazoprevir] | 2500 fold | 1 to 2 kcal/mol | > 200 fold | 1923 fold | potency loss in replicon assays [8]: over 100 fold
Cc1cnc(C(=O)N[C@H]2CCCCC/C=C\[C@@H]3C[C@@]3(C(=O)NS(=O)(=O)C3CC3)NC(=O)[C@@H]3C[C@@H](Oc4nc5ccccc5c5ccccc45)CN3C2=O)cn1 [paritaprevir] | 8500 fold | 1 to 2 kcal/mol |  | 2941 fold | 
